Consider three molecules from US20100160267A1, “Treatment of Inflammatory Bowel Disease With 2-Methylene-19-Nor-Vitamin D Compounds” (WISCONSIN ALUMNI RESEARCH FOUNDATION, priority 2003, published 2010).

One data set relates to IL-10 KO mice. Briefly: Colitis development in vitamin D deficient IL-10 KO mice, compound given in the diet. The data set is classed as in vivo, mice (C57BL/6). As to conditions: 2-MP 720 ng/d; for Incidence (# with colitis/n): incidence defined as SI/BW % of greater than 6.5, vitamin D deficient for 5 weeks, then in the diet for the remainder of 9-10 weeks: 1,25(OH)2D3 5 ng/d; for Incidence (# with colitis/n) / SI/BW (small intestine weight / body weight, all mice in the group): 2-MD 0.12 ng/d; for SI/BW (small intestine weight / body weight, all mice in the group): wildtype C57BL/6 values are 5-6, in the diet: 1,25(OH)2D3 5 ng/d; for Development of colitis symptoms (in words): IL-10 KO mice, 2-MD 0.12 ng/d in the diet. The source says:
Recently a number of transgenic animals have been developed in which IBD symptoms occur spontaneously. One of the best animal models for Crohn's disease is the IL-10 knockout (KO) mouse (Kuhn et al. 1993, Mac Donald 1994). In conventional animal facilities, the IL-10 KO mice develop enterocolitis within 5-8 weeks of life (Kuhn et al. 1993). Approximately 30% of the IL-10 KO mice die following the development of severe anemia and weight loss (Kuhn et al. 1993). […] In addition mice raised in specific pathogen free facilities develop milder disease which doesn't result in the death of the mice (Kuhn et al. 1993). There are limitations involved in studying IL-10 KO mice as a model of IBD. If vitamin D is a regulator of IL-10 production then the results in this animal model may not represent […] what may happen in a “normal” immune response. However patients with Crohn's disease show similar symptoms, have depressed IL-10 production, and have been successfully treated with IL-10 (Narula et al. 1998).
(§1) Vitamin D deficient IL-10 KO mice were randomly distributed into one of 4 groups. Controls remained vitamin D deficient for the entire 9-10 weeks of the experiment. Mice treated with 1α,25-dihydroxyvitamin D3 (hereinafter “1,25(OH)2D3”) were vitamin D deficient for 5 weeks and then received 5 ng/d in the diet for the remainder of the experiment. 2-MP treated mice were vitamin D deficient for 5 weeks and then received 720 ng/d in the diet for the remainder of the experiment. 2-MD treated mice were vitamin D deficient for 5 weeks and then received 0.12 ng/d in the diet for the remainder of the experiment. VDR KO IL10KO mice were bred with VDR KO mice and the double IL10/VDR KO mice are compared here.

Data set [1] in a line: Serum calcium and body weight of treated vitamin D deficient IL-10 KO mice. It is filed as in vivo, mice (C57BL/6). Particulars: in the diet: 1,25(OH)2D3 5 ng/d, 2-MP 720 ng/d, 2-MD 0.12 ng/d. The protocol:
as §1

The subject of a further data set is IL-10 knock-out mice. As to conditions: cited from earlier work.

Marks after values point to notes of the source that are not given here.

With `C=C1/C(=C\C=C2/CCC[C@]3(C)[C@@H]([C@H](C)CCCC(C)(C)O)CC[C@@H]23)C[C@@H](O)C[C@@H]1O` [1,25(OH)2D3, 1α,25-dihydroxyvitamin D3, reference compound], in the data set with IL-10 KO mice, the “Incidence (# with colitis/n)” value is recorded as 1/28^c and the “SI/BW (small intestine weight / body weight, all mice in the group)” value was 5.8 ± 0.3^b %. Also, in data set [1], the “BW (body weight)” value is 20.8 ± 0.5^c g and the “Serum Calcium” value is 8.9 ± 0.3^a mg %. Also, the “Prevention of IBD (in words)” value in the data set on IL-10 knock-out mice is “can prevent IBD”.
Take `C=C1[C@H](O)CC(=C/C=C2\CCC[C@]3(C)C([C@@H](C)CCCC(C)(C)O)CC[C@@]23C)C[C@H]1O` (stereo partly drawn) [2-MD, 2-methylene-19-nor-20(S)-1α,25-dihydroxyvitamin D3]: in the data set on IL-10 KO mice, the “Development of colitis symptoms (in words)” value was “effective at inhibiting and/or preventing the development of colitis symptoms”; the “Incidence (# with colitis/n)” value is 0/9^c; the “SI/BW (small intestine weight / body weight, all mice in the group)” value is on record as 5.3 ± 0.1^b %. Also, the “BW (body weight)” value in data set [1] is listed as 20.8 ± 1.0^c g.
The matching figures for `C=C1[C@H](O)CC(=C/C=C2\CCC[C@]3(C)C(C(C)C)CC[C@@]23C)C[C@H]1O` (stereo partly drawn) [2-MP, 1α-hydroxy-2-methylene-19-nor-homopregnacalciferol]: “effective at inhibiting and/or preventing the development of colitis symptoms”, 0/8^c, 5.4 ± 0.3^b % and 20.2 ± 0.5^c g.
